Data: US20260125379A1, “PRODRUG OF JAK KINASE INHIBITOR” (E-nitiate Biopharmaceuticals (Hangzhou) Co., Ltd, priority 2022, published 2026)
Where a name gives a salt, the structure may show the parent alone.

Experiments:
[1] = molecular target: JAK2 (Homo sapiens, UniProt O60674); experiment: JAK2 kinase inhibition assay (ULight-JAK-1 substrate, Eu-labeled anti-phosphotyrosine antibody); assay type: biochemical; details: JAK2 0.125 nM, substrate 50 nM, ATP 10 μM, 1 hour at room temperature
Description: (§1) Example A: Activity Detection of JAK Kinase Small Molecule Inhibitors
(§2) Kinase reaction buffer was prepared with the following components: 50 mM HEPES, pH 7.5, 1 mM EGTA, 10 mM MgCl2, 2 mM DTT, 0.01% Tween20.
(§3) Detection buffer was prepared by diluting 10× detection buffer to IX with deionized water in a ratio of 9:1.
(§4) JAK kinase was diluted with kinase reaction buffer to 4× final concentration (JAK1: 40 nM, JAK2: 0.5 nM).
(§5) ULight™-JAK-1 (Tyr1023) substrate was diluted with kinase reaction buffer to 200 nM (final concentration: 50 nM).
(§6) ATP was diluted with kinase reaction buffer to 4× final concentration (JAK1: 160 μM, JAK2: 40 μM).
(§7) Compound to be tested was dissolved with DMSO to obtain a 10 mM storage solution, which was diluted to desired concentrations by a 3-fold gradient; for each compound 10 concentration points were set, and the final concentration of the compound to be tested ranges from 10 μM to 0.5 nM.
(§8) EDTA was dissolved with 1× detection buffer to 40 mM (EDTA final concentration: 10 mM).
(§9) Eu-labeled detection antibody (anti-phosphotyrosine (PT66)) was diluted with 1× detection buffer to 8 nM (final antibody concentration: 2 nM).
(§10) (1) To a 384-well plate, 2.5 μL 4× kinase solution and 2.5 μL 4× test compound solution with different concentrations that have been diluted were added successively, each concentration was set in duplicate, and an enzyme solution blank control and a negative control (DMSO group) were also set.
(§11) (2) The 384-well plate was shaken to mix enzyme and compound well, and then centrifuged at 1000 rpm for 1 minute, and incubated at room temperature for 60 minutes.
(§12) (3) 2.5 μL 4× substrate solution was added to the 384-well plate and centrifuged at 1000 rpm for 1 minute.
(§13) (4) 2.5 μL 4× ATP solution was added to the 384-well plate and centrifuged at 1000 rpm for 1 minute, and then enzyme reaction was initiated.
(§14) (5) For JAK1 the reaction was carried out at room temperature for 2 hours, and for JAK2 the reaction was carried out at room temperature for 1 hour.
For the JAK2 reaction, the final concentrations of component are as follows: JAK2: 0.125 nM, substrate: 50 nM, ATP: 10 μM; and the final concentration of the tested compound ranges from 10 μM to 0.5 nM.
(§15) (7) After the enzyme reaction was completed, 5 μL 4× enzyme reaction termination solution was added to each well of the 384-well plate, and then centrifuged at 1000 rpm for 1 minute and incubated at room temperature for 5 minutes.
(§16) (8) 5 μL 4× detection antibody solution (the final concentration of detection antibody is 2 nM) was added to each well of the 384-well plate, and then centrifuged at 1000 rpm for 1 minute and incubated at room temperature for 1 hour.
(§17) (9) At the antibody incubation was completed, signal value of each well was measured on a Envision plate reader.
(§18) (1) The percentage inhibition rate corresponding to each concentration of the tested compound was calculated on the basis that the blank control of enzyme solution corresponds to 100% and the negative control (DMSO group) corresponds to 0%.
(§19) (2) A nonlinear regression analysis of the logarithm of the concentration of the detected compound and the corresponding percentage inhibition rate was performed in GraphPad Prism software to obtain the half-inhibiting concentration (IC50) of the tested compound.

[2] = molecular target: JAK1 (Homo sapiens, UniProt P23458); experiment: JAK1 kinase inhibition assay (ULight-JAK-1 substrate, Eu-labeled anti-phosphotyrosine antibody); assay type: biochemical; details: JAK1 10 nM, substrate 50 nM, ATP 40 μM, 2 hours at room temperature
Sequence of JAK1 (P23458 whole entry, species assumed): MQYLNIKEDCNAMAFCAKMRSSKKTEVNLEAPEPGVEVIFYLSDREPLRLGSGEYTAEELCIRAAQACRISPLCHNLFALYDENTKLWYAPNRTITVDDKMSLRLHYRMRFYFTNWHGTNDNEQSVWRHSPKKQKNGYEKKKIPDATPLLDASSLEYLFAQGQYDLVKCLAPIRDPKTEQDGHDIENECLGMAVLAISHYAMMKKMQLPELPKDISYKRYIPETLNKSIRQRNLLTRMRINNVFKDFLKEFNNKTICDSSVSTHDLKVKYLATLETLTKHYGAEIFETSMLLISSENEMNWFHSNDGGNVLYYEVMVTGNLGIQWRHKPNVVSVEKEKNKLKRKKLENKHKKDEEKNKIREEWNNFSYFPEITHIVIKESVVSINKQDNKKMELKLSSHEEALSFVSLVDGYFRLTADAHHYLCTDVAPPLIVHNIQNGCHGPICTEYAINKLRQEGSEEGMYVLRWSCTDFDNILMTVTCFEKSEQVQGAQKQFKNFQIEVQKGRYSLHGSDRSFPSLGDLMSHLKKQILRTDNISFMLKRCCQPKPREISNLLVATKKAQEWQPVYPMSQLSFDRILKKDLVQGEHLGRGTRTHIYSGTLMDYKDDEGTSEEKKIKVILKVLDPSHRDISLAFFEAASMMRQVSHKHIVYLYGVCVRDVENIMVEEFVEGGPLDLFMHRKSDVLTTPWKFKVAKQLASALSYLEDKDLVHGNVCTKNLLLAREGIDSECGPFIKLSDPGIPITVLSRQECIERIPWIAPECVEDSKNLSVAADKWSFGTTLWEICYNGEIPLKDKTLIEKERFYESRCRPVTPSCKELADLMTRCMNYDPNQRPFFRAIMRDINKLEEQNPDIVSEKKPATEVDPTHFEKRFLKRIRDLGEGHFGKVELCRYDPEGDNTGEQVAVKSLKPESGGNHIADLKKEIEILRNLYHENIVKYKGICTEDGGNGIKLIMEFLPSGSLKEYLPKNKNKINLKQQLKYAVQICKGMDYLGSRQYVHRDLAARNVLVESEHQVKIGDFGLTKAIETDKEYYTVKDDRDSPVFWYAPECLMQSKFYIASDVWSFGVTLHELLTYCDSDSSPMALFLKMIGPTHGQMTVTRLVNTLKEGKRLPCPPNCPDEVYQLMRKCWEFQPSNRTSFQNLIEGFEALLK
Description: as §1, §2, §3, §4, §5, §6, §7, §8, §9, §10, §11, §12, §13, §14
(6) For the JAK1 reaction, the final concentrations of components are as follows: JAK1: 10 nM, substrate: 50 nM, ATP: 40 μM; and the final concentration of the tested compounds ranges from 10μ M to 0.5 nM.
as §15, §16, §17, §18, §19

Sequence of JAK2 (O60674 whole entry, species assumed): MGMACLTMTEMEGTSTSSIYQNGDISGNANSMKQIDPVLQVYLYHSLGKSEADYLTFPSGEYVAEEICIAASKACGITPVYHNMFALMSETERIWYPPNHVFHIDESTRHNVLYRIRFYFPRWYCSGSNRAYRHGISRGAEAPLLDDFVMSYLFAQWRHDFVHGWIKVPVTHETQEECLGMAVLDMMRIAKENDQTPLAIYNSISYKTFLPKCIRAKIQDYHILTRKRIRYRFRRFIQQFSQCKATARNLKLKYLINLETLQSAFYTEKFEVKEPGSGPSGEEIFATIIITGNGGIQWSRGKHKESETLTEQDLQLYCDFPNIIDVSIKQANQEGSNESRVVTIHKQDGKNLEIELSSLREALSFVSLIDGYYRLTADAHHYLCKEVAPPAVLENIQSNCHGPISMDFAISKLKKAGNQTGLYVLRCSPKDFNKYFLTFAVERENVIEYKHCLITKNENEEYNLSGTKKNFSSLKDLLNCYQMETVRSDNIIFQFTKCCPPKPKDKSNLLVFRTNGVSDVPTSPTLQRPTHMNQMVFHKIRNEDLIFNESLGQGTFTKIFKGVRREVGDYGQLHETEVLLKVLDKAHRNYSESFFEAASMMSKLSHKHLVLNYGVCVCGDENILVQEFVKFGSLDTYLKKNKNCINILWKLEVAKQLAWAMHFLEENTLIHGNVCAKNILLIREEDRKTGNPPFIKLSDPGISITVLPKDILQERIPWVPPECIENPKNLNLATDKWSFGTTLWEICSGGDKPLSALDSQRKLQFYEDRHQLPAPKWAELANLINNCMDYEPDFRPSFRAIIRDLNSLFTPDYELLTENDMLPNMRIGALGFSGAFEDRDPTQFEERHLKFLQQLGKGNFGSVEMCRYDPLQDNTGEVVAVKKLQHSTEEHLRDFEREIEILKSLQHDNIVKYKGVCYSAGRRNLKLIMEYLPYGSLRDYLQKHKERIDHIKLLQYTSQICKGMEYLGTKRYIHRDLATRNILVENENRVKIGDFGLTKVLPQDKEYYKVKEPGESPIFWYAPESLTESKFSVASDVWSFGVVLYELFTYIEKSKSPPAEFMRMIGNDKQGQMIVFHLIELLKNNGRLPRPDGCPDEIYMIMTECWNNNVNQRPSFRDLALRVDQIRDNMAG

| Compound | IC50 [1] | IC50 [2] |
| --- | --- | --- |
| CSCC1(C)CCN(n2c(CCO[N+](=O)[O-])nc3cnc4[nH]ccc4c32)CC1 [Compound A12, 2-(1-(4-Methyl-4-((methylthio)methyl)piperidin-1-yl)-1,6-dihydroimidazo[4,5-d]pyrrolo[2,3-b]pyridin-2-yl)ethyl nitrate] | 37.9 nM | 38.9 nM |
| CC(=O)O[C@H](C)c1nc2cnc3[nH]ccc3c2n1N1CCC(CC#N)CC1 [Compound A5, (R)-1-(1-(4-(cyanomethyl)piperidin-1-yl)-1,6-dihydroimidazo[4,5-d]pyrrolo[2,3-b]pyridin-2-yl)ethyl acetate] | 4.04 nM | 1.83 nM |
| C[C@@H](OC(=O)CN(C)C)c1nc2cnc3[nH]ccc3c2n1N1CCC(CC#N)CC1 [Compound A7, (R)-1-(1-(4-(cyanomethyl)piperidin-1-yl)-1,6-dihydroimidazo[4,5-d]pyrrolo[2,3-b]pyridin-2-yl)ethyl dimethylglycinate] | 57.8 nM | 3.85 nM |
| N#CC[C@H]1CC[C@H](n2c(/N=N/c3ccc(O)c(C(=O)N[C@H](CCC(=O)O)C(=O)O)c3)nc3cnc4[nH]ccc4c32)CC1 [Compound B10, (5-((E)-(1-((1R,4R)-4-(cyanomethyl)cyclohexyl)-1,6-dihydroimidazo[4,5-d]pyrrolo[2,3-b]pyridin-2-yl)diazenyl)-2-hydroxybenzoyl)-D-glutamic acid] | 0.28 nM | 1.34 nM |
| CC(C)[C@H](N)C(=O)O[C@H](C)c1nc2cnc3[nH]ccc3c2n1N1CCC(CC#N)CC1 [Compound A9, (R)-1-(1-(4-cyanomethylpiperidin-1-yl)-1,6-dihydroimidazo[4,5-d]pyrrolo[2,3-b]pyridin-2-yl)ethyl L-valinate] | 56.4 nM | 3.05 nM |
| N#CCS(=O)(=O)NCC1CCN(n2c(N)nc3cnc4[nH]ccc4c32)CC1 [Compound B2, N-((1-(2-aminoimidazo[4,5-d]pyrrolo[2,3-b]pyridin-1(6H)-yl)-piperidin-4-yl)methyl)-1-cyano methanesulfonamide] | 0.1 nM | 0.045 nM |
| N#CC[C@H]1CC[C@H](n2c(N)nc3cnc4ccoc4c32)CC1 [Compound B5, 2-((1R,4R)-4-(2-amino-1H-furo[3,2-b]imidazo[4,5-d]pyridin-1-yl)cyclohexyl)acetonitrile] | 7.15 nM | 1.33 nM |
| N#CC[C@H]1CC[C@H](n2c(/N=N/c3ccc(O)c(C(=O)N[C@H](CCCCN)C(=O)O)c3)nc3cnc4[nH]ccc4c32)CC1 [Compound B9, (5-((E)-(1-((1R,4R)-4-(cyanomethyl)cyclohexyl)-1,6-dihydroimidazo[4,5-d]pyrrolo[2,3-b]pyridin-2-yl)diazenyl)-2-hydroxybenzoyl)-D-lysine] | 6.62 nM | 2.52 nM |
| CC(C)[C@@H](N)C(=O)O[C@H](C)c1nc2cnc3[nH]ccc3c2n1N1CCC(CC#N)CC1 [Compound A8, (R)-1-(1-(4-(cyanomethyl)piperidin-1-yl)-1,6-dihydroimidazo[4,5-d]pyrrolo[2,3-b]pyridin-2-yl)ethyl D-valinate] | 72 nM | 5.86 nM |
| N#CCC1CCN(n2c(N)nc3cnc4ccsc4c32)CC1 [Compound B4, 2-(1-(2-amino-1H-imidazo[4,5-d]thieno[3,2-b]pyridin-1-yl)piperidin-4-yl)acetonitrile] | 1.74 nM | 0.47 nM |
| N#CC[C@H]1CC[C@H](n2c(/N=N/c3ccc(O)c(C(=O)N[C@H](CCCN=C(N)N)C(=O)O)c3)nc3cnc4[nH]ccc4c32)CC1 [Compound B11, (R)-2-(5-((E)-(1-((1R,4R)-4-(cyanomethyl)cyclohexyl)-1,6-dihydroimidazo[4,5-d]pyrrolo[2,3-b]pyridin-2-yl)diazenyl)-2-hydroxybenzamido)-5-((diaminomethylene)amino)valeric acid] | 3.38 nM | 1.6 nM |
| C[C@@H](OC(=O)CCCCO[N+](=O)[O-])c1nc2cnc3[nH]ccc3c2n1N1CCC(CC#N)CC1 [Compound A6, (R)-1-(1-(4-(cyanomethyl)piperidin-1-yl)-1,6-dihydroimidazo[4,5-d]pyrrolo[2,3-b]pyridin-2-yl)ethyl 5-(nitrooxy)valerate] | 40.3 nM | 31.3 nM |
| CSCC1(C)CCN(n2c(CO[N+](=O)[O-])nc3cnc4[nH]ccc4c32)CC1 [Compound A11, (1-(4-Methyl-4-((methylthio)methyl)piperidin-1-yl)-1,6-dihydroimidazo[4,5-d]pyrrolo[2,3-b]pyridin-2-yl)methyl nitrate] | 4.19 nM | 5.62 nM |
| COC(=O)/C=C/C(=O)OCO[C@H](C)c1nc2cnc3[nH]ccc3c2n1N1CCC(CC#N)CC1 [Compound A10, (R)-(1-(1-(4-(cyanomethyl)piperidin-1-yl)-1,6-dihydroimidazo[4,5-d]pyrrolo[2,3-b]pyridin-2-yl)ethoxy)methyl monomethyl fumarate] | 21.1 nM | 96.7 nM |
| N#CCC1CCN(n2c(/N=N/c3ccc(O)c(C(=O)O)c3)nc3cnc4[nH]ccc4c32)CC1 [Compound B7, (E)-5-((1-(4-cyanomethylpiperidin-1-yl)-1,6-dihydroimidazo[4,5-d]pyrrolo[2,3-b]pyridin-2-yl)diazenyl)-2-hydroxybenzoic acid] | 0.27 nM | 1 nM |
| N#CC[C@H]1CC[C@H](n2c(/N=N/c3ccc(O)c(C(=O)N[C@H](CC(=O)O)C(=O)O)c3)nc3cnc4[nH]ccc4c32)CC1 [Compound B8, (5-((E)-(1-((1R,4R)-4-(cyanomethyl)cyclohexyl)-1,6-dihydroimidazo[4,5-d]pyrrolo[2,3-b]pyridin-2-yl)diazenyl)-2-hydroxybenzoyl)-D-aspartic acid] | 4.26 nM | 1.75 nM |
| N#CC[C@H]1CC[C@H](n2c(/N=N/c3ccc(O)c(C(=O)NCCS(=O)(=O)O)c3)nc3cnc4[nH]ccc4c32)CC1 [Compound B12, 2-(5-((E)-(1-((1R,4R)-4-(cyanomethyl)cyclohexyl)-1,6-dihydroimidazo[4,5-d]pyrrolo[2,3-b]pyridin-2-yl)diazenyl)-2-hydroxybenzamido) ethan-1-sulfonic acid] | 0.47 nM | 1.02 nM |
| C[C@@H](OC(=O)Nc1ccccc1/N=N/c1ccc(O)c(C(=O)O)c1)c1nc2cnc3[nH]ccc3c2n1N1CCC(CC#N)CC1 [Compound A4] | 100 nM | 105 nM |
| Nc1nc2cnc3[nH]ccc3c2n1N1CCCCC1 [Compound B1, 1-(Piperidin-1-yl)-1,6-dihydroimidazo[4,5-d]pyrrolo[2,3-b]pyridin-2-amine] | 38.7 nM | 2.15 nM |
